The results in this text go back to US20220251096A1, “7,8-DIHYDRO-4H-PYRAZOLO[4,3-c]AZEPINE-6-ONE COMPOUNDS” (Eli Lilly and Company, priority 2019, published 2022).

One test deals with T1, EP300 (Homo sapiens, UniProt Q09472).
T1 sequence (Q09472 1049-1156 limits assumed): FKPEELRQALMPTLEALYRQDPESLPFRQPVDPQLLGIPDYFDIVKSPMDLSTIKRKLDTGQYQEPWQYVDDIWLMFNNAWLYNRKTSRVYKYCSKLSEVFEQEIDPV
Briefly: BromoKdELECT platform assay, EP300. The format is binding. Also on record: purchased DiscoverX (BromoKdELECT service). Particulars: 11 points dose-response, mean from a duplicate experiment. The source says: (§1) The purpose of this assay is to evaluate the in vitro target engagement and selectivity (https://www.discoverx.com/services/drug-discovery-development-services/epigenetic-profiling/bromoscan-epigenetic-profiling/bromokdelect). Assay measurement is based on the amount of bromodomain captured in test and control samples by using quantitative PCR technology that detects the DNA label associated to bromodomain. Compounds that bind the bromodomain active site prevents its binding to the immobilized ligand and will reduce the amount of bromodomain captured on the solid support. […] Thus, compound activity is monitored by measuring the amount of bromodomain captured in test versus control samples by using qPCR. Binding affinity for test compound-bromodomain interactions are calculated by measuring the amount of bromodomain captured on the solid support as a function of the test compound concentration.
(§2) Binding affinity (Kd) of the compounds of Examples 1 and 2 towards CREBBP, EP300 and BRD4 (Bromodomain 1 (BD1) and Bromodomain 2 (BD2)) are determined in an 11 points dose-response study (See Table 5). Data is represented as a mean from a duplicate experiment.

A further test deals with T2, BRD4 (BD1) (Homo sapiens, UniProt O60885).
T2 construct: BRD4 (Bromodomain 1 (BD1) and Bromodomain 2 (BD2)); purchased DiscoverX (BromoKdELECT service)
The test is described as follows: BromoKdELECT platform assay, BRD4 (BD1). The format is binding. Particulars: 11 points dose-response, mean from a duplicate experiment.
From the text: as §1, §2

Test [1] concerns the target T3, CREBBP (Homo sapiens, UniProt Q92793). The test is described as follows: NanoBRET assay, CREBBP bromodomain. The test is classed as cell-based. Also on record: NanoLuc-CREBBP-BD (Promega, 0.0002 μg); host or cells: HEK293. Particulars: NanoBRET in HEK293 cells, read after 4 hours incubation; mean ± Standard Deviation. As for the experimental part:
HEK293 cells are seeded at 10×10^6 cells/16 mL in DMEM+10% FBS in a T-75 flask and left to attach for 4-6 hours. Transfection reagents are diluted in Opti-MEM media (no phenol red, no FBS) and 8% Fugene HD containing expression plasmids at a final concentration of the following: 1: Histone H3.3 HaloTag DNA (Promega, 0.02 μg)+NanoLuc-CREBBP-BD (Promega, 0.0002 μg); 2: Histone H3.3 HaloTag DNA (Promega, 0.02 μg)+NanoLuc-EP300-BD (Promega, 0.0002 μg); 3: Histone H4 HaloTag DNA (0.02 μg)+NanLuc-BRD4 Full Length (Promega, 0.0002 μg). The DNA/Fugene mixtures are left at RT for 10 minutes. Transfection mix (800 μL) is added per flask and immediately swirled to cover the cells. The plates are returned to the incubator for overnight transfection. The next day, HaloTag NanoBRET 618 ligand (20 μL/vial of 0.1 mM) is thawed at RT. […]
Compound is serially diluted and added to 96-well plates (2 10 mM, 3-fold dilutions, 100% DMSO). […] CREBBP/EP300 plates are read after 4 hours incubation and the BRD4 plates are read after overnight incubation. To develop plates for reading, allow all reagents to reach RT before use. […] The plate is shaken for 1 minute to mix and within 10 minutes, read on Envision plate reader with the following settings: Mirror: Luminescence; Emission filter: E600LP; 2nd emission filter: D460/50; Measurement height (mm): 6.5; Measurement time (s): 0.2 second.
Background: BRET reads energy transfer from a luciferase to a nearby fluorophore.

For another test, the system named is Kasumi (AML1-ETO). Briefly: Cell growth inhibition assay, Kasumi (AML1-ETO). The test is classed as cell-based. Particulars: 168 h, 7 days. On the procedure:
(§3) Tumor cell lines are plated onto 96-well, black wall poly-D-lysine plates (Corning #354640), and incubated at 37° C., 5% CO2 for 18-24 hours. Compound was added at 1:3 dilutions in DMSO and cells were incubated at 37° C., 5% CO2 for 7 days. For adherent cell lines, cells were fixed and stained with propidium iodide and scanned on Acumen (channel 3 setting). For suspension cell lines, cell growth was monitored using Cell Titer-Glo reagent.

Another test has as its system GDM1. The test is described as follows: Cell growth inhibition assay, GDM1. The format is cell-based. The conditions noted are these: Homo sapiens, GDM-1, 168 h; GDM1, 7 days. As for the experimental part: as §3
Test [2] deals with T3, CREBBP. The test is described as follows: BromoKdELECT platform assay, CREBBP. Set-up: purchased DiscoverX (BromoKdELECT service). The test is classed as binding. Particulars: 11 points dose-response, mean from a duplicate experiment.
From the text: as §1, §2

T3 sequence (Q92793 1085-1192 limits assumed): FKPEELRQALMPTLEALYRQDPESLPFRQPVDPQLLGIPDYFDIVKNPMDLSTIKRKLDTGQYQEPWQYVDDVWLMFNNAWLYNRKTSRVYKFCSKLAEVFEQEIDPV

What is called Kd is a measure of binding affinity in units of concentration. Lower therefore signals tighter binding. Usually IC50 stands for the concentration needed to halve the response being measured. Higher therefore signals lower potency. As for `CCNC(=O)c1ccc(-c2cc3cccc(-c4nn(C)c5c4CN(C)C(=O)CC5)c3cn2)cn1` [Example 2, 5-[8-(1,5-Dimethyl-6-oxo-7,8-dihydro-4H-pyrazolo[4,3-c]azepin-3-yl)-3-isoquinolyl]-N-ethyl-pyridine-2-carboxamide], the Kd on EP300 came out at 0.095 nM; at BRD4 (BD1) it was 2650 nM; on CREBBP [2], 0.325 nM. Moreover, the IC50 turned out to be 18.6 ± 4.09 nM on CREBBP [1], 8 nM with Kasumi (AML1-ETO) and 280 nM in the test on GDM1.
